The text below walks through data of patent US10189887B2, “Polypeptides and uses thereof for reducing CD95-mediated cell motility” (INSERM (INSTITUT NATIONAL DE LA SANTÉ ET DE LA RECHERCHE …, priority 2014, dated 2019).

Assay [1] relates to CD95-mediated Ca^2+ response. The assay can be described thus: Calcium response to cl-CD95L in MEF. Conditions: MEFs pre-incubated 1 hr, 10 μM peptide; 100 ng/ml cl-CD95L. It is filed as cell-based. The protocol: Cells were loaded with Fura2-AM (1 μM) at resting temperature for 30 min in Hank's Balanced Salt Solution (HBSS). After washing with HBSS, the cells were incubated for 15 min in the absence of Fura2-AM to complete de-esterification of the dye. Cells were placed in a thermostated chamber (37° C.) of an inverted epifluorescence microscope (Olympus IX70) equipped with a ×40, UApo/340-1.15 W water-immersion objective (Olympus), and fluorescence micrograph images were captured at 510 nm and at 12-bit resolution by a fast-scan camera (CoolSNAP fx Monochrome, Photometrics). To minimize UV light exposure, 4×4 binning function was used. Fura2-AM was alternately excited at 340 and 380 nm, and ratios of the resulting images (excitations at 340 and 380 nm and emission filter at 520 nm) were produced at constant intervals (5 s or 10 s according to the stimulus). […] Fluorescent images were pseudocolored using the IMD display mode in MetaFluor and assembled without further manipulation in Photoshop (Adobe). Raw data were acquired with MetaFluor and graphed in Origin (OriginLab). […]

The subject of a further assay is Th17 cells. The assay can be described thus: Endothelial transmigration of CD4 T-cell subsets (Th17, Th1, Treg), Boyden chamber. It is filed as cell-based, human. Conditions: indicated concentrations of peptide, Boyden Chamber assay. The protocol: Animal experiments were subject to ethical review by the University of Nottingham were appropriate and conducted using PPL 40/3412 in accordance with the UK Home Office guidance and under ASPA (1986). For the generation of murine T-cell subsets, spleens were removed from C57Bl/6 mice and single cell suspensions prepared. CD4^+CD62L^+ naïve cells were isolated using Miltenyi Biotec microbeads. Naïve human CD4^+ T-cells were prepared using the Miltenyi Biotec naïve CD4^+ T-cell isolation kit II, which are sorted produced a 99% pure population of CD4^+CD45RA^+ cells. Purified cells were cultured in complete IMDM media all with α-CD3 (1 μg/ml), α-CD28 (2 μg/ml), and as follows; Th1 cells IL-12 (10 ng/ml) with α-IL-4 (10 μg/ml), Th2 cells IL-4 (10 ng/ml) and α-IFN-γ (10 μg/ml), Th17 cells Il-6 (10 ng/ml), TGF-β1 (2 ng/ml), α-IFN-γ (10 μg/ml) with α-IL-4 (10 μg/ml), and Tregs IL-2 (10 ng/ml) TGF-β1 (5 ng/ml), α-IFN-γ (10 μg/ml) and α-IL-4 (10 μg/ml). Cells were converted to T-cell subsets over five days as outlined above. All cytokines were supplied by PeproTech (London, UK). Mouse CD3 (clone 2C11); human CD3 (UCHT1); mouse CD28 (37.51); human CD28 (CD28.2); mouse IL-4 (11B11); human IL-4 (MP4-25D2); mouse IFN-γ (XMG1.2); human IFN-γ B27 came from BD Pharmigen.
After hydration of the Boyden chamber membranes containing 3 μm pore size membranes (Millipore, Molsheim, France), activated T-lymphocytes (10^6) were added to the top chamber on a confluent monolayer of HUVEC in a low serum (1%)-containing medium. […] In experiments using human sera, 500 μl of serum from either healthy donors or SLE patients was added in the lower reservoir. Cells were cultured for 24 h at 37° C. in a 5% CO2 humidified incubator. Transmigrated cells were counted in the lower reservoir by flow cytometry using a standard of 2.5×10^4 fluorescent beads (Flow-count, Beckman Coulter).
Blocking antibodies were used against E-selectin and ICAM-1 in the CHEMICON® endothelial cell adhesion assay (Millipore). Briefly, after activation of the endothelial cell layer with TNF-α, anti-mouse Ig controls, anti-E-selectin or anti-ICAM-1 were added at final concentrations of 10 μg/ml. Thereafter calcein-AM-stained T-cell subsets were incubated for 24 hours and unbound cells are washed. Cells attached to the endothelium were assessed using fluorescence plate reader.

Assay [2] relates to Akt serine 473 (PI3K signaling pathway). Nature of the assay: Akt phosphorylation in PBLs exposed to cl-CD95L. Format: cell-based, human. Particulars: peptide pre-incubation. Here is the method:
Cells were lyzed for 30 minutes at 4° C. in lysis buffer (25 mM HEPES pH 7.4, 1% v/v Triton X-100, 150 mM NaCl, 2 mM EGTA supplemented with a mix of protease inhibitors (Sigma-Aldrich)). Protein concentration was determined by the bicinchoninic acid method (PIERCE, Rockford, Ill., USA) according to the manufacturer's protocol. Proteins were separated on a 12% SDS-PAGE and transferred to a nitrocellulose membrane (GE Healthcare, Buckinghamshire, England). The membrane was blocked 15 minutes with TBST (50 mM Tris, 160 mM NaCl, 0.05% v/v Tween 20, pH 7.8) containing 5% w/v dried skimmed milk (TBSTM). Primary antibody was incubated overnight at 4° C. in TBSTM. The membrane was intensively washed (TBST) and then the peroxydase-labeled anti-rabbit or anti-mouse (SouthernBiotech, Birmingham, Ala., US) was added for 45 minutes. The proteins were visualized with the enhanced chemiluminescence substrate kit (ECL, GE Healthcare).

On to “TAT-CID: cell penetrating peptide linking the 36-amino acid-stretch of CID (CD95 residues 175 to 210) to the HIV-TAT sequence; SEQ ID NO: 6 (RKKRRQRRRKRKEVQKTCRKHRKENQGSHESPTLNPETVAINLSD; TAT-CID)”, for which the “initial phase of the calcium response to cl-CD95L” value in assay [1] is listed as “blocked it”. Besides, in the assay with Th17 cells, the “CD95-mediated endothelial transmigration of Th17 cells” value is “inhibited the CD95-mediated endothelial transmigration of human Th17 cells in a dose-dependent manner”. The “Akt phosphorylation at serine 473” value in assay [2] is given as “inhibited Akt phosphorylation at its serine 473”.
